Assay results taken from PubChem BioAssay (NCI).
“And” between values parts separate entries of the source, which are not always exact repeats. Identical values can stand only once.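 Briefly, cells in 96-well plates were exposed to five compound concentrations for 48 h, and endpoints were estimated by linear interpolation. At the GI50, growth is halved. TGI is the concentration that stops growth completely.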

What was measured:
Experiment in all cases: inhibition of tumour cell growth, NCI panel, 48 h
OVCAR-3 ovarian = tested on: OVCAR-3 ovarian
UO-31 renal = tested on: UO-31 renal
SK-MEL-28 melanoma = tested on: SK-MEL-28 melanoma
HT29 colon = tested on: HT29 colon
K-562 leukemia = tested on: K-562 leukemia
HOP-62 NSCLC = tested on: HOP-62 NSCLC
SK-MEL-2 melanoma = tested on: SK-MEL-2 melanoma
OVCAR-5 ovarian = tested on: OVCAR-5 ovarian
LOX IMVI melanoma = tested on: LOX IMVI melanoma
SF-268 CNS = tested on: SF-268 CNS

SMILES | GI50 (OVCAR-3 ovarian) | TGI (OVCAR-3 ovarian) | GI50 (UO-31 renal) | TGI (UO-31 renal) | GI50 (SK-MEL-28 melanoma) | TGI (SK-MEL-28 melanoma) | GI50 (HT29 colon) | TGI (HT29 colon) | GI50 (K-562 leukemia) | TGI (K-562 leukemia) | GI50 (HOP-62 NSCLC) | TGI (HOP-62 NSCLC) | GI50 (SK-MEL-2 melanoma) | TGI (SK-MEL-2 melanoma) | GI50 (OVCAR-5 ovarian) | TGI (OVCAR-5 ovarian) | GI50 (LOX IMVI melanoma) | TGI (LOX IMVI melanoma) | GI50 (SF-268 CNS) | TGI (SF-268 CNS)
CCN1CCN(C(c2ccc(C(F)(F)F)cc2)c2ccc3cccnc3c2O)CC1 (stereo unspecified) | 3.47 µM | 15.4 µM | 1590 nM | 9.04 µM | 3.68 µM | 16.6 µM | 5.31 µM | 21 µM | 3490 nM | 14.6 µM | 1.32 µM | 13.7 µM | 4.53 µM | 17.6 µM | 2.61 µM | 14.6 µM | 1710 nM | 10.5 µM | 1.36 µM | 12.8 µM
O=c1[nH]c2c(nc1NC13CC4CC(CC(C4)C1)C3)c(=O)oc1ccccc12 |  | > 100 µM |  | > 100 µM |  | > 100 µM |  | > 100 µM |  | > 100 µM |  | > 100 µM |  | > 100 µM |  | > 100 µM |  | > 100 µM |  | > 100 µM
O=C(CNc1ccc(Cl)cc1)Nc1ccc(-c2nc3ccccc3s2)cc1 | 2.04 µM | 3.99 µM | 4030 nM | 15.4 µM | 5.67 µM | 11.6 µM | 3.8 µM | 11.4 µM | 1950 nM | > 100 µM | 8.62 µM | 23.8 µM | 8.96 µM | 30.8 µM | 5.97 µM | 13.3 µM | 1440 nM | 2.95 µM | 3.38 µM | 10.8 µM
COc1ccc(C(C)=O)cc1N1C(=O)C2C(C1=O)C1(c3ccccc3)C(=O)C2(c2ccccc2)C(c2ccc(C)cc2)=C1c1ccc(C)cc1 (stereo unspecified) | > 100 µM | > 100 µM | > 100000 nM | > 100 µM | > 100 µM | > 100 µM | > 100 µM | > 100 µM | > 100000 nM | > 100 µM | > 100 µM | > 100 µM | > 100 µM | > 100 µM | > 100 µM | > 100 µM | > 100000 nM | > 100 µM | > 100 µM | > 100 µM
CCN(CC)CCC(CNc1ccnc2cc(Cl)ccc12)c1ccc(OC)cc1 (stereo unspecified) | 16.7 µM and 6.96 µM | 66.3 µM and 33.1 µM | 1540 nM and 1880 nM | 4.35 µM and 11.6 µM | 1.75 µM and 1.87 µM | 3.4 µM and 3.42 µM | 2.47 µM and 0.6 µM | 13.2 µM and 11.2 µM | 1790 nM and 1190 nM | 5.76 µM and 4.14 µM | 14.4 µM and 9.7 µM | 39.2 µM and 34 µM | 15.4 µM and 2.02 µM | 33.1 µM and 4.07 µM | 11.6 µM and 5.65 µM | 32.2 µM and 38.6 µM | 1880 nM and 1600 nM | 4.79 µM and 4.15 µM | 4.19 µM and 5.23 µM | 18.4 µM and 21.4 µM
N#Cc1c(NN)n(C2OC(CO)C(O)C2O)c2ncnc(N)c12 (stereo unspecified) | 0.028 µM | 0.299 µM | 41.7 nM | 0.774 µM | 0.0312 µM | 0.216 µM | 0.0351 µM |  | 18.1 nM | 0.176 µM | 0.247 µM | 2.02 µM | 0.282 µM | 0.946 µM | 0.311 µM | 14.4 µM | 51.3 nM | 0.328 µM | 0.171 µM | > 45.3 µM
CCCCC(C(=O)C(=O)NC1C2CC3CC(C2)CC1C3)C(=O)C(C)C (stereo unspecified) |  | > 100 µM |  | > 100 µM |  | > 100 µM |  | > 100 µM |  | > 100 µM |  | > 100 µM |  | > 100 µM |  | > 100 µM |  | > 100 µM |  | > 100 µM
CCCCCCNC(=O)c1cc(NCc2cc(O)ccc2O)ccc1O | 2.76 µM | 13 µM | 1220 nM | 2.76 µM | 12.3 µM | 25.4 µM | 21.6 µM | 44.3 µM | 2710 nM | 12.8 µM | 30 µM | 91.5 µM | 11.9 µM | 34.5 µM | 6.63 µM | 20.8 µM | 6840 nM | 22.4 µM | 3.79 µM | 18.1 µM
S=C(Nc1ccccc1)N(/N=C/C=C/c1ccccc1)c1nnc(-c2ccccc2)c(-c2ccccc2)n1 |  | > 100 µM |  | > 100 µM |  | > 100 µM |  | > 100 µM |  | > 100 µM |  | > 100 µM |  | > 100 µM |  | > 100 µM |  | > 100 µM |  | > 100 µM
COc1ccc(C2C(Cl)C(=O)N2n2cnc3ccccc3c2=O)cc1 (stereo unspecified) |  | > 100 µM |  | > 100 µM |  | > 100 µM |  | > 100 µM |  | > 100 µM |  | > 100 µM |  | > 100 µM |  | > 100 µM |  | > 100 µM |  | > 100 µM
CCOC(=O)CCCn1c(SC)nc2[nH]cc(-c3ccccc3)c2c1=O | 16.8 µM | 42.6 µM | 19900 nM | 57.9 µM | 17.6 µM | 37.1 µM | 19.5 µM | 59.7 µM | 12700 nM | 56.9 µM | 11 µM | 40.4 µM | 21.6 µM | 45.8 µM | 37.5 µM | 97.1 µM | 11300 nM | 25.8 µM | 20.8 µM | 87.8 µM
COc1cc(C#CC(=O)OC/C=C/c2ccc3c(c2)OCO3)cc(OC)c1OC |  | 63.3 µM |  | 37 µM |  | > 100 µM |  | > 100 µM |  | 58.1 µM |  | 86 µM |  | 25.4 µM |  | > 100 µM |  | 47.3 µM |  | 59.5 µM
O=C(OC(CNc1cc(=O)n(Cc2ccccc2)c(=O)n1Cc1ccccc1)CN1CCCC1)c1ccccc1 (stereo unspecified) | > 100 µM | > 100 µM | > 100000 nM | > 100 µM | > 100 µM | > 100 µM | 35 µM | > 100 µM | 92100 nM | > 100 µM | > 100 µM | > 100 µM | > 100 µM | > 100 µM | > 100 µM | > 100 µM | > 100000 nM | > 100 µM | > 100 µM | > 100 µM
Cc1ccc(NC(=O)C(=O)C(C(=O)c2ccc3ccccc3c2)C2OC(=O)c3ccccc32)cc1C (stereo unspecified) |  | 48.6 µM |  | 27.6 µM |  | 26.9 µM |  | > 100 µM |  | 59.7 µM |  | 35.7 µM |  | 36.3 µM |  | 71.3 µM |  | 32.8 µM |  | 52.8 µM
O=C1c2cccc(NCCCNCCO)c2C(=O)c2cccc(NCCCNCCO)c21 |  | 5.65 µM and 9.94 µM |  | 22.2 µM and 21.4 µM |  | 3.99 µM and 3.84 µM |  | 4.43 µM and 5.38 µM | 3690 nM and 1050 nM | 18.8 µM and 8.27 µM |  | 6.38 µM and 6.71 µM |  | 3.47 µM and 3.42 µM |  | 6.28 µM and 6.41 µM |  | 4.79 µM and 6.13 µM | 0.58 µM and 1.5 µM | 2.82 µM and 4.69 µM
